Assay results: patent US5962487A, “Antipicornaviral compounds and methods for their use and preparation” (Agouron Pharmaceuticals, Inc., priority 1997, dated 1999)

How the values were obtained:
[1] = in vitro; format: cell-based; details: human, hi-hela cells
Summary of the method: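 HI-HeLa cells infected with HRV-14 at m.o.i. 0.13 or mock-infected, incubated with compounds for two days; XTT/PMS formazan read at 450/650 nm. EC50 as concentration restoring formazan to 50% of mock-infected level; CC50 from mock-infected cells; TI = CC50/EC50.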

[2] = test system: CVA-21; test: Anticoxsackieviral HI-HeLa Cell Culture Assay, CVA-21; format: cell-based, Coxsackie strain A-21
Experimental: The ability of compounds to protect cells against CVA-21 or CVB-3 infection was measured by the XTT dye reduction method. Briefly, HI-HeLa cells were infected with CVA-21 or CVB-3 at a multiplicity of infection (m.o.i.) of 0.05 (CVA-21) and 0.08 (CVB-3) or mock-infected with medium only. Infected or uninfected cells were resuspended at 4×10^4 cells per mL and incubated with appropriate concentrations of drug. One day later, XTT/PMS was added to test plates, and the amount of formazan produced was quantified spectrophotometrically at 450/650 nm. The EC50 was calculated as the concentration of drug that increased the percentage of formazan production in drug-treated, virus-infected cells to 50% of that produced by drug-free, uninfected cells. The 50% cytotoxic dose (CC50) was calculated as the concentration of drug that decreased the percentage of formazan produced in drug-treated, uninfected cells to 50% of that produced in drug-free, uninfected cells. The therapeutic index (TI) was calculated by dividing the CC50 by the EC50.
The Coxsackie strains A-21 (CVA-21) and B-3 (CVB-3) were purchased from American Type Culture Collection (ATCC). Virus stocks were propagated and antiviral assays were performed in HI-HeLa cells (ATCC). Cells were grown in Minimal Essential Medium with 10% fetal bovine serum.

[3] = test system: HRV-14; test: Antirhinoviral HI-HeLa Cell Culture Assay (cell protection, XTT), HRV-14; format: cell-based, human rhinovirus
Summary of the method: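 HI-HeLa cells infected at m.o.i. 0.13 (or mock-infected), 8×10^5 cells/mL, incubated with compounds for two days; XTT/PMS formazan read at 450/650 nm. EC50 is the concentration restoring formazan in infected cells to 50% of compound-free mock-infected; CC50 is 50% decrease in mock-infected cells; TI = CC50/EC50.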

## CCOC(=O)/C=C/[C@H](CCC(N)=O)NC(=O)[C@H](Cc1ccccc1)N(C)C(=O)[C@H](CC(C)C)NC(=O)OCc1ccccc1 [Compound 2, Ethyl-3-(CBZ-L-Leu-L-N-Me-Phe-L-Gln)-E-Propenoate]
[1]
  CC50 at 48 h: 56 µM
[2]; 24 h, CVA-21 infection of Hi-HeLa cells, XTT, one day
  EC50: 3.3 µM
[2]; CC50/EC50, CVA-21
  TI: 17
[3]; CC50/EC50, HRV serotype-14, 2880 min
  TI: 56
[3]; Rhinovirus B, HRV14, 48 h, HRV serotype-14 infected HI-HeLa cells, XTT, two days
  EC50: 1 µM
